Source: PubChem BioAssay AID248 (DTP/NCI, 2004)
“And” between values parts separate entries of the source, which are not always exact repeats. Equal values may be shown once. Toxic doses and inconclusive results are not listed. No stated cut-off is given here; in the data, active means T/C of 150% or more; inactive means T/C below 125%.

Tested on: L1210 leukemia ip in BDF1 mice, survival T/C
Experiment: NCI In Vivo Anticancer Drug Screen. Data for tumor model L1210 Leukemia (intraperitoneal) in B6D2F1 (BDF1) mice
Conditions: endpoint: mean survival time, higher = longer survival
Outline: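 Tumor was transplanted into mice, which were then dosed with test compound or vehicle alone. Survival was recorded for each group, and the treated figure was expressed relative to the control figure.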

[1] = dose: 100.0 mg/kg/injection, schedule: Q01DX009 (ip), vehicle: carboxymethylcellulose (CMC)
[2] = dose: 100.0 mg/kg/injection, schedule: Q04DX002 (ip), vehicle: Klucel (hydroxypropylcellulose) (HPC)
[3] = dose: 100.0 mg/kg/injection, schedule: Q04DX002 (ip), vehicle: carboxymethylcellulose (CMC)
[4] = dose: 100.0 mg/kg/injection, schedule: Q04DX003 (ip), vehicle: carboxymethylcellulose (CMC)
[5] = dose: 200.0 mg/kg/injection, schedule: Q01DX009 (ip), vehicle: carboxymethylcellulose (CMC)
[6] = dose: 200.0 mg/kg/injection, schedule: Q04DX002 (ip), vehicle: Klucel (hydroxypropylcellulose) (HPC)
[7] = dose: 200.0 mg/kg/injection, schedule: Q04DX002 (ip), vehicle: carboxymethylcellulose (CMC)
[8] = dose: 200.0 mg/kg/injection, schedule: Q04DX003 (ip), vehicle: carboxymethylcellulose (CMC)
[9] = dose: 400.0 mg/kg/injection, schedule: Q04DX002 (ip), vehicle: Klucel (hydroxypropylcellulose) (HPC)
[10] = dose: 400.0 mg/kg/injection, schedule: Q04DX002 (ip), vehicle: carboxymethylcellulose (CMC)
[11] = dose: 100.0 mg/kg/injection, schedule: Q01DX009 (ip), vehicle: saline
[12] = dose: 100.0 mg/kg/injection, schedule: Q04DX003 (ip), vehicle: saline
[13] = dose: 200.0 mg/kg/injection, schedule: Q01DX009 (ip), vehicle: saline
[14] = dose: 200.0 mg/kg/injection, schedule: Q04DX003 (ip), vehicle: saline
[15] = dose: 400.0 mg/kg/injection, schedule: Q04DX003 (ip), vehicle: saline
[16] = dose: 100.0 mg/kg/injection, schedule: Q01DX009 (ip), vehicle: Klucel (hydroxypropylcellulose) (HPC)
[17] = dose: 100.0 mg/kg/injection, schedule: Q04DX003 (ip), vehicle: Klucel (hydroxypropylcellulose) (HPC)
[18] = dose: 200.0 mg/kg/injection, schedule: Q01DX009 (ip), vehicle: Klucel (hydroxypropylcellulose) (HPC)
[19] = dose: 200.0 mg/kg/injection, schedule: Q04DX003 (ip), vehicle: Klucel (hydroxypropylcellulose) (HPC)
[20] = dose: 400.0 mg/kg/injection, schedule: Q04DX003 (ip), vehicle: Klucel (hydroxypropylcellulose) (HPC)
[21] = dose: 400.0 mg/kg/injection, schedule: Q01DX009 (ip), vehicle: Klucel (hydroxypropylcellulose) (HPC)

Measured: T/C

Cc1ccc(C(O)c2cnc(C)n2Cc2ccccc2)cc1 (configuration not stated)
inactive: [1] 96 % of control | [2] 94 % of control | [3] 94 % of control and 112 % of control | [4] 107 % of control | [5] 100 % of control and 107 % of control | [6] 109 % of control | [7] 94 % of control and 98 % of control | [8] 92 % of control | dose: 400.0 mg/kg/injection, schedule: Q01DX009 (ip), vehicle: carboxymethylcellulose (CMC) 96 % of control and 86 % of control | [9] 88 % of control | [10] 94 % of control and 95 % of control | dose: 400.0 mg/kg/injection, schedule: Q04DX003 (ip), vehicle: carboxymethylcellulose (CMC) 96 % of control

Nc1nc(=O)n(CC(=O)c2ccco2)cc1F
inactive: [11] 100 % of control | [12] 95 % of control | [13] 94 % of control | [14] 97 % of control | [15] 93 % of control

O=C(Nc1ccc2c(c1)C(Br)c1ccccc1-2)C(F)(F)F (configuration not stated)
inactive: [16] 98 % of control | [17] 97 % of control | [18] 93 % of control | [19] 97 % of control | [20] 97 % of control

O=C1NOCC1N=Cc1ccccc1O (configuration not stated)
inactive: [17] 102 % of control | [19] 98 % of control | [20] 101 % of control

O=C1c2ccccc2C(=O)N1CNc1ccccc1/C(=N/Nc1ccc([N+](=O)[O-])cc1[N+](=O)[O-])c1ccccc1
inactive: dose: 100.0 mg/kg/injection, schedule: Q04DX002 (ip), vehicle: saline with Tween-80 91 % of control | dose: 200.0 mg/kg/injection, schedule: Q04DX002 (ip), vehicle: saline with Tween-80 91 % of control | dose: 400.0 mg/kg/injection, schedule: Q04DX002 (ip), vehicle: saline with Tween-80 94 % of control

CCN(CC)Cc1cc(Nc2cc(C)nc3ccc(N(C)C)cc23)ccc1O
inactive: dose: 12.5 mg/kg/injection, schedule: Q01DX009 (ip), vehicle: saline 104 % of control | dose: 25.0 mg/kg/injection, schedule: Q01DX009 (ip), vehicle: saline 98 % of control | dose: 50.0 mg/kg/injection, schedule: Q01DX009 (ip), vehicle: saline 100 % of control

O=C(O)CCOC(C[N+](=O)[O-])C(Cl)(Cl)Cl (configuration not stated)
inactive: [16] 96 % of control | [18] 97 % of control | [21] 94 % of control

O=C(O)/C=C/c1cccc(Br)c1
inactive: dose: 50.0 mg/kg/injection, schedule: Q01DX001 (ip), vehicle: carboxymethylcellulose (CMC) 101 % of control | dose: 100.0 mg/kg/injection, schedule: Q01DX001 (ip), vehicle: carboxymethylcellulose (CMC) 97 % of control | dose: 200.0 mg/kg/injection, schedule: Q01DX001 (ip), vehicle: carboxymethylcellulose (CMC) 97 % of control | dose: 400.0 mg/kg/injection, schedule: Q01DX001 (ip), vehicle: carboxymethylcellulose (CMC) 101 % of control

N#CC(Cc1ccccc1)c1ccccc1 (configuration not stated)
inactive: dose: 50.0 mg/kg/injection, schedule: Q01DX001 (ip), vehicle: saline 97 % of control | dose: 100.0 mg/kg/injection, schedule: Q01DX001 (ip), vehicle: saline 106 % of control | dose: 200.0 mg/kg/injection, schedule: Q01DX001 (ip), vehicle: saline 101 % of control

C#CC(OC(=O)N(C)C)(c1ccccc1)c1ccc(F)cc1 (configuration not stated)
inactive: dose: 5.0 mg/kg/injection, schedule: Q01DX001 (ip), vehicle: saline 108 % of control | dose: 10.0 mg/kg/injection, schedule: Q01DX001 (ip), vehicle: saline 105 % of control | dose: 20.0 mg/kg/injection, schedule: Q01DX001 (ip), vehicle: saline 109 % of control | dose: 40.0 mg/kg/injection, schedule: Q01DX001 (ip), vehicle: saline 117 % of control

COc1ccccc1C(=O)N/N=C(\C)c1cccc2ccccc12
inactive: [16] 108 % of control | [18] 110 % of control | [21] 96 % of control

Cc1cc(Cl)ccc1OC(=O)Nc1cccc2ccccc12
inactive: dose: 50.0 mg/kg/injection, schedule: Q01DX009 (ip), vehicle: carboxymethylcellulose (CMC) 97 % of control and 101 % of control | dose: 50.0 mg/kg/injection, schedule: Q04DX003 (ip), vehicle: carboxymethylcellulose (CMC) 103 % of control | [1] 102 % of control and 104 % of control | [2] 101 % of control | [3] 98 % of control and 91 % of control | [4] 100 % of control | [5] 94 % of control and 92 % of control | [6] 112 % of control | [7] 98 % of control and 100 % of control | [8] 95 % of control | [9] 104 % of control | [10] 104 % of control

CCOC(=O)N(c1ccccc1)C1OCC(OC(C)=O)C(OC(C)=O)C1OC(C)=O (configuration not stated)
inactive: [11] 97 % of control | dose: 100.0 mg/kg/injection, schedule: Q04DX003 (ip), vehicle: water 97 % of control | [13] 93 % of control | dose: 200.0 mg/kg/injection, schedule: Q04DX003 (ip), vehicle: water 97 % of control | dose: 400.0 mg/kg/injection, schedule: Q01DX009 (ip), vehicle: saline 94 % of control | dose: 400.0 mg/kg/injection, schedule: Q04DX003 (ip), vehicle: water 94 % of control

C[N+](C)(C)CCOS(=O)(=O)[O-]
inactive: dose: 50.0 mg/kg/injection, schedule: Q04DX003 (ip), vehicle: saline 99 % of control | [12] 97 % of control and 103 % of control | [14] 95 % of control and 105 % of control | [15] 98 % of control

Cc1ccc(O)c(C(=O)C(C)CCCC(C)C)c1 (configuration not stated)
inactive: dose: 75.0 mg/kg/injection, schedule: Q01DX009 (ip), vehicle: Klucel (hydroxypropylcellulose) (HPC) 89 % of control | dose: 150.0 mg/kg/injection, schedule: Q01DX009 (ip), vehicle: Klucel (hydroxypropylcellulose) (HPC) 94 % of control | dose: 300.0 mg/kg/injection, schedule: Q01DX009 (ip), vehicle: Klucel (hydroxypropylcellulose) (HPC) 100 % of control

CCOC(=O)c1ccc(NC(=S)NC(=O)/C=C/c2ccccc2)cc1
inactive: dose: 100.0 mg/kg/injection, schedule: Q01DX009 (ip), vehicle: saline with Tween-80 92 % of control | dose: 100.0 mg/kg/injection, schedule: Q04DX003 (ip), vehicle: saline with Tween-80 91 % of control | dose: 200.0 mg/kg/injection, schedule: Q01DX009 (ip), vehicle: saline with Tween-80 100 % of control | dose: 200.0 mg/kg/injection, schedule: Q04DX003 (ip), vehicle: saline with Tween-80 94 % of control | dose: 400.0 mg/kg/injection, schedule: Q01DX009 (ip), vehicle: saline with Tween-80 97 % of control | dose: 400.0 mg/kg/injection, schedule: Q04DX003 (ip), vehicle: saline with Tween-80 101 % of control

NC1CCS(=O)(=O)CC1
inactive: dose: 100.0 mg/kg/injection, schedule: Q01DX001 (ip), vehicle: water 93 % of control | dose: 200.0 mg/kg/injection, schedule: Q01DX001 (ip), vehicle: water 101 % of control | dose: 400.0 mg/kg/injection, schedule: Q01DX001 (ip), vehicle: water 104 % of control
